Legend:
[1] = cited from earlier work; for anesthetic properties / utility: prior art statement (fluorocyclobutanes: Larsen 1969 review)
[2] = standard test for evaluation of inhalation anesthetics in mice (rotating drum, 10 min exposure); type: in vivo; conditions: mouse, in vivo, inhaled or intranasal; calculated from AC50 and LC50 minimum concentrations; read-out: AI (anesthetic index)
Protocol: (§1) In this test, mice were exposed to the compound for a period of 10 minutes in a rotating drum. Observations were made of the pinch reflex, the corneal reflex and the return of the righting reflex. At least four graded doses were employed to determine the minimum concentration required to anesthetized 50% of the mice (AC50) and the minimum concentration required to kill 50% of the mice (LC50). The anesthetic index (AI) was then calculated from these minimum concentrations.

mice = experiment: as above; type: in vivo; conditions: mice, inhalation, 10 minutes exposure, rotating drum; % volume
Protocol: as §1

SMILES | anesthetic properties / utility [1] | selectivity ratio at 10 min [2] | LC50 (minimum concentration required to kill 50% of the mice) (mice) | also measured
FC1(F)C(F)(F)C(F)(Cl)C1(F)Cl (centres unmarked) [1,2-dichlorohexafluoro-] | – | – | – | toxicity ([1]; Larsen 1969 review): toxic
FC1C(F)C(F)(F)C1(F)F (centres unmarked) [1,2-dihydrohexafluoro-] | possesses anesthetic properties | – | – | –
COC1(F)C(F)(F)C(F)(F)C1(F)Cl (centres unmarked) [Example 1, 1-chloro-2-methoxy-1,2,3,3,4,4-hexafluorocyclobutane] | – | ~2 | 7-8% | –
COC1CC(F)(F)C1(F)Cl (centres unmarked) [Example 2, 1-chloro-2methoxy-1,4,4-trifluorocyclobutane] | – | > 2 | > 2% | –
COC1(F)C(F)(F)C(F)(F)C1(F)Br (centres unmarked) [Example 3, 1-bromo-2-methoxy-1,2,3,3,4,4-hexafluorocyclobutane] | – | > 2.5 | > 2.5% | –
C1CCCC1 [cyclopentane] | no medical utility | – | – | –
C1CC1 [cyclopropane] | effective if inflammable anesthetic | – | – | –
FC1(F)C(F)(F)C(F)(F)C1(F)F [octafluoro-] | inactive | – | – | –

From patent US3958013A, “Halogenated cyclobutyl ether anesthetics” (W. R. Grace & Co., priority 1975, dated 1976)
